Results reported in patent US20090156687A1, “Fab I and inhibition of apicomplexan parasites” (priority 2003, published 2009).
≈ marks a conversion by molar mass, not a printed value. Where two headings read alike, the source gives them in different places.

Experiments:
[1] = test system: P. falciparum; experiment: microbe, parasite or virus in culture; type: cell-based, Plasmodium falciparum; conditions: for IC50: Plasmodium falciparum
Protocol: Because Fab I was located, the effects of triclosan on Plasmodium falciparum in vitro were investigated. For P. falciparum, the in vitro assays (Milhous et al., 1985; Oduola et al., 1988) were conducted using a modification of the semiautomated microdilution technique for assessing anti-folate antagonists. Instead of dialysed human plasma, 10% Albumax I (Gibco BRL), a serum-free substitute, was used to supplement the RPMI 1640 medium. All test compounds were dissolved in DMSO and diluted 400-fold into complete medium before serial dilution over 11 concentrations. Incubation was at 37° C. in 5% O2, 5% CO2 and 90% N2 for 48 h. [3H]-Hypoxanthine incorporation was measured as described previously (Milhous et al, 1985; Oduola et al, 1988).
P. falciparum. The in vitro assays (Oduala et al., 1988; Milhous et al., 1985) were conducted using a modification of the semiautomated microdilution technique for assessing antifolate antagonists. Instead of dialysed human plasma, 10% Albumaz I (Gibco BRL), a serum-free substitute, was used to supplement the RPMI 16-40 media. All test compounds were dissolved in DMSO and diluted 400-fold into complete media before serial dilution over 11 concentrations. Incubation was at 37° C. in 5% O2, 5% CO2 and 90% N2 for 48h, [3H]-Hypoxanthine incorporation was measured as described previously (13, 14).

[2] = test system: T. gondii; experiment: T. gondii growth inhibition in human foreskin fibroblasts, 3H uracil uptake; type: cell-based, Toxoplasma gondii; conditions: for percentage inhibition of T. gondii uracil uptake: 125 nanograms per ml
Protocol: For T. gondii, growth inhibition was assessed over a 4-day period as described previously (Mack et al., 1984; Roberts et al., 1998; Zuther et al., 1999) using human foreskin fibroblasts (HFF) infected with 105 tachyzoites of the RH strain of T. gondii. The assays are based on microscopic visual inspection of infected and inhibitor treated cultures, and on quantitation of nucleic acid synthesis of the parasite by measuring uptake of 3H uracil into the parasite's nucleic acid. Uracil is not utilized by mammalian cells. Parasites present as tachyzoites (RH, Ptg., a clone derived from the Me49 strain), bradyzoites (Me49), and R5 mutants (mixed tachyzoites/bradyzoites of the Me49 strain that can be stage switched by culture conditions) (Bohne et al., 1993; Soete et al., 1994; Tomovo and Boothroyd, 1995; Weiss et al., 1992) are suitable for assay systems used to study effectsof inhibitors. Only the RH strain tachyzoites, cultured for up to 72 hours, had been used in previously reported assays. The use of Me49, Ptg, and R5 mutants are unique aspects of the methods used in these assays in this invention.
(§1) In these assays toxicity of a candidate inhibitor was assessed by its ability to prevent growth of human foreskin fibroblasts (HFF) after 4 days and after 8 days as measured by tritiated thymidine uptake and microscopic evaluation. Confluent monolayers of HFF were infected with tachyzoites and bradyzoites. Inhibitor was added one hour later. Non-toxic doses were used in parasite growth inhibition assays. Parasite growth was measured by ability to incorporate tritiated uracil during the last 48 hours of culture.
T. gondii in vitro. Growth inhibition was assessed over a 4-day period as described previously by Roberts et al., 1998; Zuther et al., 1999; and Mack et al., 1984, all incorporated by reference, using human foreskin fibroblasts (HFF) infected with 105 tachyzoites of the RH strain of T. gondii. Uptake of 3H uracil was determined. Evaluation of slides of preparations containing HFF, Toxoplasma and inhibitors were made.

[3] = test system: human foreskin fibroblasts (HFF); experiment: Toxicity to host cells, tritiated thymidine uptake and microscopic evaluation; type: cell-based; conditions: at concentrations effective against T. gondii
Protocol: as §1

[4] = test system: P. berghei; experiment: P. berghei murine model; type: in vivo; conditions: subcutaneously, 3 or 38 mg/kg
[5] = target: P. falciparum FAB I (Plasmodium falciparum, UniProt Q9BH77); experiment: Fab I enzyme activity (NADH dependent); type: biochemical; conditions: purified P. falciparum FAB I
[6] = test system: Cryptosporidia; type: cell-based
[7] = test system: T. gondii; conditions: literature (Waller et al., 1998; Zuther et al., 1999); cited from earlier work
[8] = test system: EPSP synthase; experiment: EPSP synthase enzyme activity; type: biochemical, T. gondii; conditions: 1 mM
[9] = test system: P. falciparum; experiment: In vitro synergy with cerulein; parameters: species or system Plasmodium falciparum; conditions: cerulein (inhibitor of Fab F, B, H) with triclosan
[10] = 48 h, read-out: IC 50 when cultured with P Falciparum, strain TM91C234, 48 h
[11] = 48 h, read-out: IC 50 when cultured with P Falciparum, strain W2 (chloroquine and pyrimethamine resistant), 48 h
[12] = TM90C2A, 48 h, read-out: IC 50 when cultured with P Falciparum, strain TM90C2A (chloroquine and mefloquine resistant, admission isolate), 48 h
[13] = TM90C2B, 48 h, read-out: IC 50 when cultured with P Falciparum, strain TM90C2B (recrudescent isolate, atovaquone resistant), 48 h

Chain of P. falciparum FAB I (Q9BH77 entry or part of it): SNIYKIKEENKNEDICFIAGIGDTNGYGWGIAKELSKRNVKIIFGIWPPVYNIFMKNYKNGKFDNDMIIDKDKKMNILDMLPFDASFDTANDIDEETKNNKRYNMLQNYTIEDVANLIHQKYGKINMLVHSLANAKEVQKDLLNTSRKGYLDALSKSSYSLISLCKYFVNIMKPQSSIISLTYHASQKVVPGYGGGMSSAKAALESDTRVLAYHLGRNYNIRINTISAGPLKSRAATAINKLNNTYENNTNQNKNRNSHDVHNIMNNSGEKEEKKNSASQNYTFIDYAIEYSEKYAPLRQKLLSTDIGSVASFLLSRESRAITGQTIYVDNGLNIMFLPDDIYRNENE

Oc1cc(Cl)ccc1Oc1ccc(Cl)cc1Cl [Triclosan, 5-chloro-2-[2,4 dichloropheoxyl] phenol]
IC50 ([1]; 48 h, strain TM91C234, 48 h, read-out: IC 50 when cultured with P Falciparum): 1.8 µg/mL (≈ 6.22 µM)
IC50 ([1]; TM90C2A, 48 h, read-out: IC 50 when cultured with P Falciparum): 1.89 µg/mL (≈ 6.53 µM)
IC50 ([1]; TM90C2B, 48 h, strain TM90C2B (recrudescent isolate, atovaquone resistant), 48 h, read-out: IC 50 when cultured with P Falciparum): 1.33 µg/mL (≈ 4.59 µM)
IC50 ([1]; W2, strain W2, text value, read-out: IC50 against pyrimethamine resistant P. falciparum (W2)): 0.15 µg/mL (≈ 0.518 µM)
IC50 ([1]; range over strains, read-out: IC50, growth and survival of P. falciparum): 0.15 to 2 µg/mL (≈ 0.518 to 6.91 µM)
percentage inhibition of T. gondii uracil uptake ([2]; day 1, separate experiment): 20%
percentage inhibition of T. gondii uracil uptake ([2]; day 4, separate experiment): 72%
IC50, T. gondii uracil uptake ([2]; RH strain in HFF, 4 days after infection): 62 nanograms/ml
IC50 ([2]; Toxoplasma gondii, Fibroblast, 96 h, read-out: IC50, T. gondii uracil uptake): 0.062 µg/mL (≈ 0.214 µM)
toxicity to host cells / host cells uptake of thymidine [3]: no toxicity
toxicity to host cells / host cells uptake of thymidine ([3]; listed as triclosan): no inhibitory effect
death [4]: prevented death
parasitemia [4]: cleared parasitemia
toxicity in P. berghei murine model [4]: nontoxic
FAB I enzyme activity [5]: inhibited

Oc1cccc2cccnc12 [8-OH-quinoline]
effect on Cryptosporidia [6]: inhibitory effects

O=C(NO)c1ccccc1O [SHAM]
effect on Cryptosporidia [6]: inhibitory effects

C=C/C(C)=C/[C@@]1(C)SC(=O)C(C)=C1O [thiolactomycin]
growth of T. gondii in vitro [7]: restrict the growth

OC(c1cc(C(F)(F)F)nc2c(C(F)(F)F)cccc12)C1CCCCN1 (stereo not shown) [Mefloquine]
IC50 ([1]; 48 h, read-out: IC 50 when cultured with P Falciparum): 0.0053 µg/mL (≈ 0.014 µM)
IC50 [1, 10]: 0.0196 µg/mL (≈ 0.0518 µM)
IC50 [1, 11]: 0.002 µg/mL (≈ 0.00529 µM)
IC50 [1, 12]: 0.0245 µg/mL (≈ 0.0648 µM)
IC50 [1, 13]: 0.0193 µg/mL (≈ 0.051 µM)

O=C(O)CC[N+](=O)[O-] [3NPA]
effect on Cryptosporidia [6]: inhibited

NC1C=CC=C(C(=O)O)C1 (racemic) [gabaculine]
effect on Cryptosporidia [6]: inhibitory effects

C[C@@H](Oc1ccc(Oc2ncc(Cl)cc2F)cc1)C(=O)O [clodinafop]
inhibition of T. gondii ([2]; 1 micromolar): ionhibited

CCN(CC)CCCC(C)Nc1ccnc2cc(Cl)ccc12 (stereo not shown) [Chloroquine]
IC50 ([1]; 48 h, read-out: IC 50 when cultured with P Falciparum, strain D6 (chloroquine and pyrimethamine susceptible), 48 h): 0.0038 µg/mL (≈ 0.0119 µM)
IC50 [1, 10]: 0.0461 µg/mL (≈ 0.144 µM)
IC50 [1, 11]: 0.162 µg/mL (≈ 0.508 µM)
IC50 [1, 12]: 0.0573 µg/mL (≈ 0.179 µM)
IC50 [1, 13]: 0.0827 µg/mL (≈ 0.259 µM)
IC50 ([1]; W2, read-out: IC50 against pyrimethamine resistant P. falciparum (W2), strain W2, text value): 0.16 µg/mL (≈ 0.5 µM)

O=C(O)CNCP(=O)(O)O [NPMG]
in vitro growth of asexual erythrocytic forms ([1]; P. falciparum): inhibition
uptake of tritiated uracil by tachyzoites ([2]; RH strain): inhibited
EPSP synthase enzyme activity [8]: inhibition
effect on Cryptosporidia [6]: inhibitory effects

C/C=C/C/C=C/CCC(=O)[C@H]1O[C@H]1C(N)=O
synergy in vitro [9]: Synergy
